Reference: patent US20060069132A1, “Azolecarboxamide herbicides” (priority 2004, published 2006)

Columns and labels:
morningglory [1] = test: Test A pre-/postemergence herbicide test; type: in vivo, Ipomoea spp.
Outline: (§1)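 Both application timings were run together: directed soil spray over freshly planted seeds in sandy loam, and runoff spray onto 2–10 cm seedlings. Evaluation after ~10 days in greenhouse used a 0–100 visual scale versus untreated controls.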

redroot pigweed = test: Test A pre-/postemergence herbicide test; type: in vivo, Amaranthus retroflexus
Outline: as §1

velvetleaf = test: Test A pre-/postemergence herbicide test; type: in vivo, Abutilon theophrasti
Outline: as §1

bermudagrass = test: Test C pre-/postemergence herbicide test; type: in vivo, Cynodon dactylon; details: for Bermudagrass plant response rating: 500 g ai/ha
Outline: (§2)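 Emerged plants at the 1- to 4-leaf stage (2–18 cm), or freshly planted seeds, received test chemicals in a non-phytotoxic solvent mixture with surfactant. Response was visually scored against controls after 12 to 14 days in the greenhouse, on a 0 (no effect) to 100 (complete control) scale.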

giant foxtail = test: Test C pre-/postemergence herbicide test; type: in vivo, Setaria faberi; details: for Foxtail, Giant plant response rating: 500 g ai/ha
Outline: as §2

lambsquarters = test: Test C pre-/postemergence herbicide test; type: in vivo, Chenopodium album; details: for Lambsquarters plant response rating: 500 g ai/ha
Outline: as §2

morningglory [2] = test: Test C pre-/postemergence herbicide test; type: in vivo, Ipomoea coccinea; parameters: key to Plant response rating, Morningglory: 0 = no effect, 100 = complete control; details: for Morningglory plant response rating: 500 g ai/ha
Outline: as §2

yellow nutsedge = test: Test C pre-/postemergence herbicide test; type: in vivo, Cyperus esculentus; details: for Nutsedge, Yellow plant response rating: 500 g ai/ha
Outline: as §2

common ragweed = test: Test C pre-/postemergence herbicide test; type: in vivo, Ambrosia elatior; parameters: key to Plant response rating, Ragweed: 0 = no effect, 100 = complete control; details: for Ragweed plant response rating: 500 g ai/ha
Outline: as §2

chickweed = test: Test C postemergence herbicide test; type: in vivo, Stellaria media
Experimental: At the same time, plants selected from these crop and weed species and also winter barley (Hordeum vulgare L.), blackgrass (Alopecurus myosuroides Huds.), canarygrass (Phalaris minor Retz.), chickweed (Stellaria media (L.) Vill.), downy bromegrass (Bromus tectorum L.), green foxtail (Setaria viridis (L.) Beauv.), Italian ryegrass (Lolium multiflorum Lam.), wheat (Triticum aestivum L.), wild oat (Avenafatua L.) and windgrass (Apera spica-venti (L.) Beauv.) were treated with postemergence applications of some of the test chemicals formulated in the same manner. Plants ranged in height from 2 to 18 cm (1- to 4-leaf stage) for postemergence treatments. Plant species in the flooded paddy test consisted of rice (Oryza sativa), smallflower umbrella sedge (Cyperus difformis L.), ducksalad (Heteranthera limosa (Sw.) Willd.) and barnyardgrass (Echinochloa crus-galli (L.) Beauv.) grown to the 2-leaf stage for testing. Treated plants and controls were maintained in a greenhouse for 12 to 14 days, after which time all species were compared to controls and visually evaluated. Plant response ratings, summarized in Table C, are based on a scale of 0 to 100 where 0 is no effect and 100 is complete control. A dash (-) response means no test result.

eastern black nightshade = test: Test C pre-/postemergence herbicide test; type: in vivo, Solanum ptycanthum; details: for Plant response rating, Nightshade: preemergence
Outline: as §2

[3] = tested on: smallflower umbrella sedge; test: Test C flooded paddy test; type: in vivo, Cyperus difformis
barnyardgrass = test: Test C flooded paddy test; type: in vivo, Echinochloa crus-galli
Outline: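 Injury scored visually against controls on a 0 (no effect) to 100 (complete control) scale, 12 to 14 days after treatment in greenhouse. Flooded paddy plants treated at 2-leaf stage; postemergence plants at 1- to 4-leaf stage, 2 to 18 cm tall.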

[4] = Postemergence, 500 g ai/ha, 0 to 100 scale, 0 no effect, 100 complete control
[5] = Postemergence, 2000 g ai/ha, 0 to 100 scale, 0 no effect, 100 complete control
[6] = Preemergence, 500 g ai/ha, visual rating, 0 to 100 scale (0 no effect, 100 complete control)
[7] = Preemergence, 2000 g ai/ha, 0 to 100 scale, 0 no effect, 100 complete control
[8] = Preemergence, 2000 g ai/ha, visual rating, 0 to 100 scale (0 no effect, 100 complete control)
[9] = Postemergence, 250 g ai/ha, scale 0 to 100, 0 no effect, 100 complete control
[10] = postemergence, 62 g ai/ha, scale 0 to 100
[11] = postemergence, 125 g ai/ha, scale 0 to 100
[12] = preemergence, 500 g ai/ha, visual injury, 0 to 100 scale (0 no effect, 100 complete control)
[13] = 125 g ai/ha, scale 0 (no effect) to 100 (complete control), visual, 12 to 14 days, preemergence
[14] = 250 g ai/ha, scale 0-100, preemergence
[15] = Preemergence, scale 0 to 100, 0 no effect, 100 complete control
[16] = 62 g ai/ha, preemergence, scale 0 to 100
[17] = 62 g ai/ha, scale 0 to 100 (0 no effect, 100 complete control)
[18] = 125 g ai/ha, scale 0 to 100 (0 no effect, 100 complete control)
[19] = 250 g ai/ha, scale of 0 to 100, 0 is no effect, 100 is complete control
[20] = 500 g ai/ha, visual rating after 12 to 14 days, scale 0 to 100 (0 no effect, 100 complete control)

SMILES: CCCCOC(=O)c1cccc(NC(=O)c2cc(C(C)(C)C)nn2CC)c1 [Compound 86]
- Morningglory plant response rating (morningglory [1]; [4]): 20
- Plant response rating, Morningglory (morningglory [1]; [5]): 35
- Morningglory plant response rating (morningglory [1]; [6]): 0
- Morningglory plant response rating (morningglory [1]; [7]): 15
- Pigweed plant response rating (redroot pigweed; [4]): 55
- Plant response rating, Pigweed (redroot pigweed; [5]): 95
- Pigweed plant response rating (redroot pigweed; [6]): 0
- Pigweed plant response rating (redroot pigweed; [7]): 55
- Velvetleaf plant response rating (velvetleaf; [4]): 40
- Plant response rating, Velvetleaf (velvetleaf; [5]): 30
- Velvetleaf plant response rating (velvetleaf; [6]): 0
- Velvetleaf plant response rating (velvetleaf; [8]): 10
- Bermudagrass plant response rating (bermudagrass; Postemergence, scale 0 to 100): 100
- Plant response rating, Bermudagrass (bermudagrass; [9]): 30
- Plant response rating, Bermudagrass (bermudagrass; [10]): 10
- Foxtail, Giant plant response rating (giant foxtail; Postemergence, scale 0 to 100): 70
- Plant response rating, Foxtail, Giant (giant foxtail; [9]): 50
- Plant response rating, Foxtail, Giant (giant foxtail; [11]): 20
- Plant response rating, Foxtail, Giant (giant foxtail; [10]): 10
- Lambsquarters plant response rating (lambsquarters; Postemergence, scale 0 to 100): 100
- Plant response rating, Lambsquarters (lambsquarters; [9]): 100
- Plant response rating, Lambsquarters (lambsquarters; [11]): 100
- Plant response rating, Lambsquarters (lambsquarters; [10]): 100
- Morningglory plant response rating (morningglory [2]; Postemergence, scale 0 to 100): 85
- Plant response rating, Morningglory (morningglory [2]; [9]): 85
- Plant response rating, Morningglory (morningglory [2]; [11]): 75
- Plant response rating, Morningglory (morningglory [2]; [10]): 10
- Nutsedge, Yellow plant response rating (yellow nutsedge; Postemergence, scale 0 to 100): 30
- Plant response rating, Nutsedge, Yellow (yellow nutsedge; [9]): 10
- Plant response rating, Nutsedge, Yellow (yellow nutsedge; [11]): 5
- Plant response rating, Nutsedge, Yellow (yellow nutsedge; [10]): 0
- Ragweed plant response rating (common ragweed; Postemergence, scale 0 to 100): 70
- Plant response rating, Ragweed (common ragweed; [9]): 70
- Plant response rating, Ragweed (common ragweed; [11]): 65
- Plant response rating, Ragweed (common ragweed; [10]): 10
- Chickweed plant response rating (chickweed; Postemergence, 500 g ai/ha, scale 0 to 100): 100
- Plant response rating, Chickweed (chickweed; [9]): 100
- Plant response rating, Chickweed (chickweed; [11]): 100
- Plant response rating, Chickweed (chickweed; [10]): 100

SMILES: C=CCNC(=O)c1cccc(NC(=O)c2sc(C(C)(C)C)nc2CC)c1 [Compound 207]
- Morningglory plant response rating (morningglory [1]; [4]): 20
- Plant response rating, Morningglory (morningglory [1]; [5]): 15
- Morningglory plant response rating (morningglory [1]; [8]): 85
- Morningglory plant response rating (morningglory [1]; [12]): 35
- Pigweed plant response rating (redroot pigweed; [4]): 30
- Plant response rating, Pigweed (redroot pigweed; [5]): 45
- Pigweed plant response rating (redroot pigweed; [8]): 100
- Pigweed plant response rating (redroot pigweed; [12]): 100
- Velvetleaf plant response rating (velvetleaf; [4]): 20
- Plant response rating, Velvetleaf (velvetleaf; [5]): 25
- Velvetleaf plant response rating (velvetleaf; [8]): 100
- Velvetleaf plant response rating (velvetleaf; [12]): 30
- Plant response rating, Bermudagrass (bermudagrass; 62 g ai/ha, preemergence, scale 0 to 100, 0 no effect, 100 complete control): 50
- Plant response rating, Bermudagrass (bermudagrass; [13]): 80
- Plant response rating, Bermudagrass (bermudagrass; [14]): 100
- Bermudagrass plant response rating (bermudagrass; [15]): 100
- Plant response rating, Foxtail, Giant (giant foxtail; [16]): 0
- Plant response rating, Foxtail, Giant (giant foxtail; [13]): 0
- Plant response rating, Foxtail, Giant (giant foxtail; [14]): 10
- Foxtail, Giant plant response rating (giant foxtail; [15]): 100
- Plant response rating, Lambsquarters (lambsquarters; [16]): 90
- Plant response rating, Lambsquarters (lambsquarters; [13]): 95
- Plant response rating, Lambsquarters (lambsquarters; [14]): 95
- Lambsquarters plant response rating (lambsquarters; [15]): 95
- Plant response rating, Morningglory (morningglory [2]; [16]): 0
- Plant response rating, Morningglory (morningglory [2]; [13]): 0
- Plant response rating, Morningglory (morningglory [2]; [14]): 0
- Morningglory plant response rating (morningglory [2]; [15]): 0
- Plant response rating, Nightshade (eastern black nightshade; 62 g ai/ha, scale 0 to 100): 60
- Plant response rating, Nightshade (eastern black nightshade; 125 g ai/ha, scale 0 (no effect) to 100 (complete control), visual, 12 to 14 days): 75
- Plant response rating, Nightshade (eastern black nightshade; 250 g ai/ha, scale 0-100): 100
- Nightshade plant response rating (eastern black nightshade; Preemergence, 500 g ai/ha, scale 0 to 100, 0 no effect, 100 complete control): 100
- Plant response rating, Nutsedge, Yellow (yellow nutsedge; [16]): 0
- Plant response rating, Nutsedge, Yellow (yellow nutsedge; [13]): 0
- Plant response rating, Nutsedge, Yellow (yellow nutsedge; [14]): 20
- Nutsedge, Yellow plant response rating (yellow nutsedge; [15]): 20
- Plant response rating, Ragweed (common ragweed; [16]): 40
- Plant response rating, Ragweed (common ragweed; [13]): 50
- Plant response rating, Ragweed (common ragweed; [14]): 60
- Ragweed plant response rating (common ragweed; [15]): 100
- Sedge, Umbrella plant response rating [3, 17]: 70
- Sedge, Umbrella plant response rating [3, 18]: 75
- Sedge, Umbrella plant response rating [3, 19]: 75
- Plant response rating, Sedge, Umbrella [3, 20]: 90
- Barnyardgrass plant response rating (barnyardgrass; [17]): 45
- Barnyardgrass plant response rating (barnyardgrass; [18]): 65
- Barnyardgrass plant response rating (barnyardgrass; [19]): 75
- Plant response rating, Barnyardgrass (barnyardgrass; [20]): 85
